In patent publication US20140358576A1, “SYSTEM AND METHOD FOR SURVEILLANCE AND EVALUATION OF SAFETY RISKS ASSOCIATED WITH MEDICAL INTERVENTIONS” (Adverse Events, Inc., priority 2013, published 2014):
Where a name gives a salt, the structure may show the parent alone. Numbered stars: 1 amine (or outer) side, 2 acyl side, 3 side chain; on linkers, the order of the positions; unused ones are H or OH. Bridge positions count the residues as written; N and C are the ends. Square brackets hold non-standard residues; d marks the D form. Peptide text beside a SMILES is read from it. * marks the point of attachment. hTyr(3S-OH,4S-OH,3'-OSO3H) = N[C@H](C(=O)O)[C@H](O)[C@@H](O)c1ccc(O)c(OS(=O)(=O)O)c1; Orn(4R-OH,5R-OH) = O=C([C@H](C[C@@H](O)[C@@H](O)N[*:3])N[*:1])[*:2]; Pro(3S-OH,4S-Me) = C[C@H]1CN[C@H](C(=O)O)[C@H]1O; X1 = CCCCCOc1ccc(-c2cc(-c3ccc(C(=O)*)cc3)no2)cc1; Gln(3R-OH) = NC(=O)C[C@@H](O)[C@H](N)C(=O)O; Hyp = O=C(O)[C@@H]1C[C@@H](O)CN1

Settings: Example 1 component score, up to 8.68 points
With `NCCCC(O)(P(=O)(O)O)P(=O)(O)O` [alendronate] the “Condition Seriousness” value was 7.02.
With `COc1ccccc1Oc1c(NS(=O)(=O)c2ccc(C(C)(C)C)cc2)nc(-c2ncccn2)nc1OCCO` [bosentan] the “Condition Seriousness” value was 2.07.
With `CS(=O)(=O)OCCCCOS(C)(=O)=O` [busulfan] the “Condition Seriousness” value was 2.52.

Same assay, conditions: human
With `NCCCC(O)(P(=O)(O)O)P(=O)(O)O` [alendronate] the Literature was 5.0.
With `COc1ccccc1Oc1c(NS(=O)(=O)c2ccc(C(C)(C)C)cc2)nc(-c2ncccn2)nc1OCCO` [bosentan] the ROR was 3.81 and the RxScore was 81.44.
For `CS(=O)(=O)OCCCCOS(C)(=O)=O` [busulfan], the “Adverse Event Seriousness” value was 14.67, the Literature was 12.5 and the Outcome was 15.73. It also gave an ROR of 7.15 and a RxScore of 86.04.
With `Nc1nc(F)nc2c1ncn2[C@@H]1O[C@H](CO)[C@@H](O)[C@@H]1O` [fludarabine] the “Adverse Event Seriousness” value was 12.69, the Literature was 12.5 and the Outcome was 15.34. For the same molecule, the ROR was 4.60 and the RxScore was 78.34.
`CCC(=O)C(CC(C)N(C)C)(c1ccccc1)c1ccccc1` (stereo not drawn) [methadone] showed a Literature of 18.8 and an ROR of 4.85.

Settings: human
`CN1CCC(=C2c3ccccc3CCn3c(C=O)cnc32)CC1` [alcaftadine] gave an ROR of 12.53.
With `Cc1nnc2n1-c1ccc(Cl)cc1C(c1ccccc1)=NC2` [alprazolam] the “Adverse Event Seriousness” value was 13.30, the Outcome was 21.02 and the ROR was 6.40. The RxScore was 72.84.
With `CC[C@H]1OC(=O)[C@H](C)[C@@H](O[C@H]2C[C@@](C)(OC)[C@@H](O)[C@H](C)O2)[C@H](C)[C@@H](O[C@@H]2O[C@H](C)C[C@H](N(C)C)[C@H]2O)[C@](C)(O)C[C@@H](C)CN(C)[C@H](C)[C@@H](O)[C@]1(C)O` [azithromycin] the ROR was 13.60.
In the case of `C[C@H]1[C@H](NC(=O)/C(=N\OC(C)(C)C(=O)O)c2csc(N)n2)C(=O)N1S(=O)(=O)O` [aztreonam], the “Adverse Event Seriousness” value is reported as 14.58, the Outcome is reported as 22.41 and the ROR is reported as 5.83. For the same molecule, the RxScore was 75.34.
Work on `CC(C)C[C@H](NC(=O)[C@H](CCc1ccccc1)NC(=O)CN1CCOCC1)C(=O)N[C@@H](Cc1ccccc1)C(=O)N[C@@H](CC(C)C)C(=O)[C@@]1(C)CO1` [carfilzomib] yielded an Outcome of 22.81.
For `CCCC(C)(COC(N)=O)COC(=O)NC(C)C` (stereo not drawn) [carisoprodol], the “Adverse Event Seriousness” value was 17.03, the Outcome was 26.05 and the ROR was 9.07. For the same molecule, the RxScore was 83.70.
With `Nc1nc(Cl)nc2c1ncn2[C@@H]1O[C@H](CO)[C@@H](O)[C@@H]1F` [clofarabine] the Outcome was 23.27.
In the case of `O=C1CN=C(c2ccccc2Cl)c2cc([N+](=O)[O-])ccc2N1` [clonazepam], the “Adverse Event Seriousness” value is reported as 11.38, the Outcome is reported as 15.34 and the ROR is reported as 3.43. For the same molecule, the RxScore was 51.36.
With `CN1CCN(C2=Nc3cc(Cl)ccc3Nc3ccccc32)CC1` [clozapine] the “Adverse Event Seriousness” value was 16.28 and the Outcome was 23.55.
With `CN(C)CCC=C1c2ccccc2C=Cc2ccccc21` [cyclobenzaprine hydrochloride] the “Adverse Event Seriousness” value was 12.25, the Outcome was 22.45 and the ROR was 6.09. For the same molecule, the RxScore was 72.46.
In the case of `CCCCC[C@H](O)/C=C/[C@H]1[C@H](O)CC(=O)[C@@H]1C/C=C\CCCC(=O)O` [dinoprostone], the “Adverse Event Seriousness” value is reported as 15.66, the Outcome is reported as 19.09 and the ROR is reported as 10.62. It also gave a RxScore of 74.95.
In the case of `CCCC(CCC)C(=O)O` [divalproex sodium], the “Adverse Event Seriousness” value is reported as 8.51, the Outcome is reported as 11.14 and the ROR is reported as 3.85. It also gave a RxScore of 41.09.
For `CNC[C@H](O)c1ccc(O)c(O)c1` [epinephrine injection, epinephrine], the “Adverse Event Seriousness” value was 4.69, the Outcome was 21.03 and the ROR was 16.91. The RxScore was 73.02.
In the case of `C#Cc1cccc(Nc2ncnc3cc(OCCOC)c(OCCOC)cc23)c1` [erlotinib hydrochloride], the “Adverse Event Seriousness” value is reported as 18.95.
In the case of `C[C@]12CC[C@@H]3c4ccc(O)cc4CC[C@H]3[C@@H]1CC[C@@H]2O` [estradiol], the “Adverse Event Seriousness” value is reported as 20.16 and the ROR is reported as 13.26.
For `CCC1(C)CC(=O)NC1=O` (stereo not drawn) [ethosuximide], the “Adverse Event Seriousness” value was 7.71, the Outcome was 10.64 and the ROR was 2.92. It also gave a RxScore of 41.01.
For `NC(=O)OCC(COC(N)=O)c1ccccc1` [felbamate], the “Adverse Event Seriousness” value was 7.72, the Outcome was 14.26 and the ROR was 2.81. For the same molecule, the RxScore was 43.92.
With `O=C1NC(c2ccccc2)(c2ccccc2)C(=O)N1COP(=O)(O)O` [fosphenytoin sodium] the “Adverse Event Seriousness” value was 8.16, the Outcome was 15.85 and the ROR was 5.09. For the same molecule, the RxScore was 46.69.
For `CC(OC(=O)NCC1(CC(=O)O)CCCCC1)OC(=O)C(C)C` (stereo not drawn) [gabapentin enacarbil], the “Adverse Event Seriousness” value was 4.67, the Outcome was 7.53 and the ROR was 2.64. It also gave a RxScore of 42.19.
With `NCC1(CC(=O)O)CCCCC1` [gabapentin] the “Adverse Event Seriousness” value was 9.67, the Outcome was 11.51 and the ROR was 2.86. It also gave a RxScore of 43.00.
In the case of `CCCCCC(=O)O[C@]1(C(C)=O)CC[C@H]2[C@@H]3CCC4=CC(=O)CC[C@]4(C)[C@H]3CC[C@@]21C` [hydroxyprogesterone caproate], the ROR is reported as 12.09.
With `CCCCCN(C)CCC(O)(P(=O)(O)O)P(=O)(O)O` [ibandronate sodium] the “Adverse Event Seriousness” value was 10.42, the Outcome was 13.02 and the ROR was 3.13. The RxScore was 45.79.
In the case of `Nc1nnc(-c2cccc(Cl)c2Cl)c(N)n1` [lamotrigine], the “Adverse Event Seriousness” value is reported as 8.89, the Outcome is reported as 10.41 and the ROR is reported as 3.57. It also gave a RxScore of 42.04.
With `CC(=O)O[C@]1(C(C)=O)CC[C@H]2[C@@H]3C[C@H](C)C4=CC(=O)CC[C@]4(C)[C@H]3CC[C@@]21C` [medroxyprogesterone acetate] the “Adverse Event Seriousness” value was 19.89 and the ROR was 12.89.
With `CN[C@@H](C)Cc1ccccc1` [methamphetamine hydrochloride] the “Adverse Event Seriousness” value was 15.73, the Outcome was 20.20 and the ROR was 12.29. The RxScore was 78.80.
Molecule `COC(=O)C(c1ccccc1)C1CCCCN1` (stereo not drawn) [methylphenidate] has an ROR of 13.69.
In the case of `CCCCCOc1ccc(-c2cc(-c3ccc(C(=O)N[C@H]4C[C@@H](O)[C@@H](O)NC(=O)[C@@H]5[C@@H](O)[C@@H](C)CN5C(=O)[C@H]([C@H](O)CC(N)=O)NC(=O)[C@H]([C@H](O)[C@@H](O)c5ccc(O)c(OS(=O)(=O)O)c5)NC(=O)[C@@H]5C[C@@H](O)CN5C(=O)[C@H]([C@@H](C)O)NC4=O)cc3)no2)cc1` [micafungin sodium] (X1-[Orn(4R-OH,5R-OH)]T[Hyp][hTyr(3S-OH,4S-OH,3'-OSO3H)][Gln(3R-OH)][Pro(3S-OH,4S-Me)]; lactam 1-C), the Outcome is reported as 22.48.
With `O=C1CCCC(=O)C1C(=O)c1ccc(C(F)(F)F)cc1[N+](=O)[O-]` [nitisinone] the “Adverse Event Seriousness” value was 15.20, the Outcome was 23.09 and the ROR was 5.32. It also gave a RxScore of 74.78.
For `[N]=O` [nitric oxide], the “Adverse Event Seriousness” value was 19.58.
For `NCCC(O)(P(=O)(O)O)P(=O)(O)O` [pamidronate disodium], the “Adverse Event Seriousness” value was 12.75, the Outcome was 6.73 and the ROR was 11.49. The RxScore was 51.86.
For `N#Cc1ccccc1-c1cc(-c2ccccn2)cn(-c2ccccc2)c1=O` [perampanel], the “Adverse Event Seriousness” value was 7.92, the Outcome was 14.67 and the ROR was 3.53. For the same molecule, the RxScore was 47.40.
In the case of `CC(C)(N)Cc1ccccc1` [phentermine], the ROR is reported as 12.22.
In the case of `O=C1NC(=O)C(c2ccccc2)(c2ccccc2)N1` [phenytoin sodium], the “Adverse Event Seriousness” value is reported as 8.38, the Outcome is reported as 12.65 and the ROR is reported as 5.12. The RxScore was 44.47.
Molecule `Nc1cccc2c1C(=O)N(C1CCC(=O)NC1=O)C2=O` (stereo not drawn) [pomalidomide] has an Outcome of 25.31.
For `CC(C)C[C@H](CN)CC(=O)O` [pregabalin], the “Adverse Event Seriousness” value was 7.13, the Outcome was 8.25 and the ROR was 2.21. It also gave a RxScore of 36.30.
In the case of `CCC1(c2ccccc2)C(=O)NCNC1=O` [primidone], the “Adverse Event Seriousness” value is reported as 8.70, the Outcome is reported as 10.86 and the ROR is reported as 3.59. For the same molecule, the RxScore was 42.07.
`C=C[C@]1(C)C[C@@H](OC(=O)CS[C@@H]2C[C@H]3CC[C@@H](C2)N3C)[C@]2(C)[C@H](C)CC[C@]3(CCC(=O)[C@H]32)[C@@H](C)[C@@H]1O` [retapamulin] showed an ROR of 12.35.
For `CN1C(=O)C(O)N=C(c2ccccc2)c2cc(Cl)ccc21` (stereo not drawn) [temazepam], the “Adverse Event Seriousness” value was 12.79, the Outcome was 22.08 and the ROR was 5.17. It also gave a RxScore of 72.69.
For `O=C1CCC(N2C(=O)c3ccccc3C2=O)C(=O)N1` (stereo not drawn) [thalidomide], the “Adverse Event Seriousness” value was 17.30 and the Outcome was 22.64.
In the case of `Cc1ccsc1C(=CCCN1CCC[C@@H](C(=O)O)C1)c1sccc1C` [tiagabine hydrochloride], the “Adverse Event Seriousness” value is reported as 10.82, the Outcome is reported as 12.04 and the ROR is reported as 6.41. It also gave a RxScore of 48.70.
In the case of `CC1(C)O[C@@H]2[C@@H](CO[C@@]3(COS(N)(=O)=O)OC(C)(C)O[C@@H]23)O1` [topiramate], the “Adverse Event Seriousness” value is reported as 11.28, the Outcome is reported as 11.96 and the ROR is reported as 4.29. For the same molecule, the RxScore was 47.54.
With `CCCC(CCC)C(=O)[O-].[Na+]` [valproate sodium] the “Adverse Event Seriousness” value was 10.26, the Outcome was 13.09 and the ROR was 5.64. For the same molecule, the RxScore was 48.83.
In the case of `CCCC(CCC)C(=O)O` [valproic acid], the “Adverse Event Seriousness” value is reported as 12.54, the Outcome is reported as 16.41 and the ROR is reported as 5.34. It also gave a RxScore of 54.78.
With `C=CC(N)CCC(=O)O` (stereo not drawn) [vigabatrin] the “Adverse Event Seriousness” value was 13.32, the Outcome was 13.81 and the ROR was 4.80. The RxScore was 51.42.
In the case of `O=P(O)(O)C(O)(Cn1ccnc1)P(=O)(O)O` [zoledronic acid (Reclast), zoledronic acid], the “Adverse Event Seriousness” value is reported as 12.33, the Outcome is reported as 16.89 and the ROR is reported as 3.53. For the same molecule, the RxScore was 53.23.
With `O=P(O)(O)C(O)(Cn1ccnc1)P(=O)(O)O` [zoledronic acid (Zometa), zoledronic acid] the “Adverse Event Seriousness” value was 14.61, the Outcome was 7.55 and the ROR was 10.08. It also gave a RxScore of 53.50.
With `NS(=O)(=O)Cc1noc2ccccc12` [zonisamide] the “Adverse Event Seriousness” value was 11.03, the Outcome was 13.71 and the ROR was 4.73. It also gave a RxScore of 49.83.
